This passage reports inhibition results from paper PMC6934184, “Selective DNA-PKcs inhibition extends the therapeutic index of localized radiotherapy and chemotherapy” (The Journal of Clinical Investigation, 2019).

For the experiment, the target named is T1, DAPK3 (ZIPK) (Homo sapiens, UniProt O43293).
T1 construct: purchased Thermo Fisher Scientific (Life Technologies) SelectScreen
In words: SelectScreen Z'LYTE. The class given is biochemical. A digest of the protocol: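 Percent values come from Thermo SelectScreen profiling of NU5455, combining activity and binding assays. CSF1R was run in Z'LYTE format at Km app ATP, and CAMK1 in Adapta format with ATP listed at 10.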

T1 sequence (O43293 whole entry): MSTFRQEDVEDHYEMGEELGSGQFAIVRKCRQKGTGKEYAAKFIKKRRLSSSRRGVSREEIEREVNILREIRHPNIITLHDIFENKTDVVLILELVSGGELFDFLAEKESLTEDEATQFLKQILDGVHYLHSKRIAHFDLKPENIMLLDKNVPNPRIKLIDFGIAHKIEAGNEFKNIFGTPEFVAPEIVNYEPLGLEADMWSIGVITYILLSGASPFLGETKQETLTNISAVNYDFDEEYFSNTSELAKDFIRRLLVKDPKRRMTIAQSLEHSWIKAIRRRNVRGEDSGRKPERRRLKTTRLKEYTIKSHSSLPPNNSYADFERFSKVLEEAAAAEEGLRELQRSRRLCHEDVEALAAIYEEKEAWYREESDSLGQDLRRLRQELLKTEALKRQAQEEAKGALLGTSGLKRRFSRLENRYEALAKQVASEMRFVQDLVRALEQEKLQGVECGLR

On to `CN(C(=O)CN1CCOCC1)c1ccc2sc3c(-c4cccc5c(=O)cc(N6CC7CCC(C6)O7)oc45)cccc3c2c1` [NU5455], for which the inhibition at 1 µM is -3.4%.
